The record followed here is patent US20090023794A1, “Use of Sumoylation Inhibitors for the Treatment of Neurodegenerative Disease” (Caritas St. Elizabeth Medical Center of Boston, Inc., priority 2005, published 2009).

Test [1] relates to tyrosine hydroxylase expression in CHP-212 cells. As to the kind of experiment: Restoration of tyrosine hydroxylase expression by HDAC inhibitors in CHP-212 cells transfected with DJ-1 siRNA (western blot). Format: cell-based, human. Particulars: for reversal of tyrosine hydroxylase inhibition caused by DJ-1 inactivation (in words): CHP-212 cells transfected with DJ-1 siRNA/RNAi. The text has this: Various acetylated histone species from CHP-212 cells transfected with control or DJ-1 RNAi for 4 days were immunoprecipitated with specific antibodies, and amplified with primers specifically for the human tyrosine hydroxylase promoter using semi-quantitative PCR. Reactions were stopped at indicated PCR cycles for gel analysis. Input: 0.5% of input DNA before IP. The inhibition of endogenous tyrosine hydroxylase and DJ-1 by the DJ-1-specific siRNA for the ChIP assays was confirmed by Western blots. […] after the transfection of control (CTR) or DJ-1 RNAi constructs, CHP-212 cells were treated with increasing amount of sodium butyrate for additional 88 hours before harvesting, with 2 changes of fresh medium containing sodium butyrate during the course of the experiment. […] The protein levels of TH, DJ-1 and β-actin were determined by western blotting.
To validate the role of histone acetylation in DJ-1-mediated regulation of the human tyrosine hydroxylase promoter, CHP-212 cells were transfected with control or DJ-1-specific siRNA. ChIP assays were performed with antibodies that specifically recognize acetylated histones, and the human tyrosine hydroxylase promoter sequences were amplified using semi-quantitative PCR. Consistent with the concurrent inhibition of the tyrosine hydroxylase protein expression, DJ-1 inactivation caused a decrease in the amount of tyrosine hydroxylase promoter-associated acetylated histones, indicating transcriptional silencing (FIG. 6A). Since DJ-1 acted as a transcriptional co-activator eventually promoting histone acetylation, it was likely that chemical inhibitors of HDAC would reverse the effects of DJ-1 inactivation. Therefore, CHP-212 cells were pre-transfected with control or DJ-1-specific siRNA, and the cells were treated with increasing amounts of the HDAC inhibitor sodium butyrate. Sodium butyrate restored tyrosine hydroxylase expression (to 88% of the levels in the control at 0.2 mM) even in the presence of DJ-1 siRNA (FIG. 6B). […]

The next test concerns histone acetylation. In words: Histone acetylation in CHP-212 cells by western blotting. The class given is cell-based, human. Particulars: data not shown.

In the case of `CCCC(=O)[O-].[Na+]` [sodium butyrate], in test [1] (0.2 mM, CHP-212 cells in the presence of DJ-1 siRNA, western blot), the “tyrosine hydroxylase expression restored, relative to the levels in the control” value was 88 % of the levels in the control. Besides, in test [1], the “reversal of tyrosine hydroxylase inhibition caused by DJ-1 inactivation (in words)” value is recorded as “restoration of tyrosine hydroxylase expression”. The “histone acetylation (in words)” value in the test on histone acetylation was “increased histone acetylation”.
`CC(/C=C/C(=O)NO)=C\[C@@H](C)C(=O)c1ccc(N(C)C)cc1` [trichostatin A]: the “reversal of tyrosine hydroxylase inhibition caused by DJ-1 inactivation (in words)” value in test [1] is “similarly reversed the tyrosine hydroxylase inhibition”.
